# Patent US3997549A, “N-arylsulfenylated derivatives of benzofuranyl methylcarbamates” (priority 1973, dated 1976)
# Tested on: Mexican bean beetle
# Experiment: Initial contact activity, Mexican bean beetle
# Conditions: Epilachna varivestis, 48 h, read-out: % Kill, BB (initial contact)
row,Compound,mortality at 1250 ppm
1,"Cc1cc(Br)ccc1SN(C)C(=O)Oc1cccc2c1OC(C)(C)C2 [XI, 2,3-Dihydro-2,2-dimethyl-7-benzofuranyl (4-bromo-2-methylphenylthio)(methyl)carbamate]",100%

# Tested on: southern army worm
# Experiment: Initial contact activity, southern army worm
# Conditions: 1250 ppm, 48 h exposure
row,Compound,"% Kill, AW (initial contact)"
1,"Cc1cc(Br)ccc1SN(C)C(=O)Oc1cccc2c1OC(C)(C)C2 [XI, 2,3-Dihydro-2,2-dimethyl-7-benzofuranyl (4-bromo-2-methylphenylthio)(methyl)carbamate]",100%

# Tested on: milkweed bug
# Experiment: Residual contact activity, milkweed bug
# Conditions: Oncopeltus fasciatus, 48 h, read-out: % Kill, MWB (residual contact)
row,Compound,mortality at 1250 ppm
1,"Cc1cc(Br)ccc1SN(C)C(=O)Oc1cccc2c1OC(C)(C)C2 [XI, 2,3-Dihydro-2,2-dimethyl-7-benzofuranyl (4-bromo-2-methylphenylthio)(methyl)carbamate]",95%

# Tested on: Mexican bean beetle
# Experiment: Residual contact activity, Mexican bean beetle
# Conditions: Epilachna varivestis, 48 h, read-out: % Kill, BB (residual contact)
row,Compound,mortality at 1250 ppm
1,"Cc1cc(Br)ccc1SN(C)C(=O)Oc1cccc2c1OC(C)(C)C2 [XI, 2,3-Dihydro-2,2-dimethyl-7-benzofuranyl (4-bromo-2-methylphenylthio)(methyl)carbamate]",100%

# Tested on: plum curculio
# Experiment: Residual contact activity, plum curculio
# Conditions: Conotrachelus nenuphar, 48 h, read-out: % Kill, PC (residual contact)
row,Compound,mortality at 1250 ppm
1,"Cc1cc(Br)ccc1SN(C)C(=O)Oc1cccc2c1OC(C)(C)C2 [XI, 2,3-Dihydro-2,2-dimethyl-7-benzofuranyl (4-bromo-2-methylphenylthio)(methyl)carbamate]",40%

# Tested on: milkweed bug
# Experiment: Initial contact activity, milkweed bug
# Conditions: Oncopeltus fasciatus, 48 h, read-out: % Kill, MWB (initial contact)
row,Compound,mortality at 1250 ppm
1,"Cc1cc(Br)ccc1SN(C)C(=O)Oc1cccc2c1OC(C)(C)C2 [XI, 2,3-Dihydro-2,2-dimethyl-7-benzofuranyl (4-bromo-2-methylphenylthio)(methyl)carbamate]",100%

# Tested on: pea aphid
# Experiment: Residual contact activity, pea aphid
# Conditions: Acyrthosiphon pisum, 48 h, read-out: % Kill, PA (residual contact)
row,Compound,mortality at 1250 ppm
1,"Cc1cc(Br)ccc1SN(C)C(=O)Oc1cccc2c1OC(C)(C)C2 [XI, 2,3-Dihydro-2,2-dimethyl-7-benzofuranyl (4-bromo-2-methylphenylthio)(methyl)carbamate]",10%

# Tested on: two-spotted spider mite
# Experiment: Initial contact activity, two-spotted spider mite
# Conditions: Tetranychus urticae, 48 h, read-out: % Kill, SM (initial contact)
row,Compound,mortality at 1250 ppm
1,"Cc1cc(Br)ccc1SN(C)C(=O)Oc1cccc2c1OC(C)(C)C2 [XI, 2,3-Dihydro-2,2-dimethyl-7-benzofuranyl (4-bromo-2-methylphenylthio)(methyl)carbamate]",9%

# Tested on: pea aphid
# Experiment: whole plant or invertebrate
# Conditions: Acyrthosiphon pisum, 48 h, read-out: % Kill, PA (systemic)
Compound,mortality at 39 ppm,mortality at 156 ppm
"Cc1cc(Br)ccc1SN(C)C(=O)Oc1cccc2c1OC(C)(C)C2 [XI, 2,3-Dihydro-2,2-dimethyl-7-benzofuranyl (4-bromo-2-methylphenylthio)(methyl)carbamate]",100%,100%

# Tested on: granary weevil
# Experiment: Residual contact activity, granary weevil
# Conditions: Sitophilus granarius, 48 h, read-out: % Kill, GW (residual contact)
row,Compound,mortality at 1250 ppm
1,"Cc1cc(Br)ccc1SN(C)C(=O)Oc1cccc2c1OC(C)(C)C2 [XI, 2,3-Dihydro-2,2-dimethyl-7-benzofuranyl (4-bromo-2-methylphenylthio)(methyl)carbamate]",100%

# Tested on: two-spotted spider mite
# Experiment: whole plant or invertebrate
# Conditions: Tetranychus urticae, 48 h, read-out: % Kill, SM (systemic)
Compound,mortality at 39 ppm,mortality at 156 ppm
"Cc1cc(Br)ccc1SN(C)C(=O)Oc1cccc2c1OC(C)(C)C2 [XI, 2,3-Dihydro-2,2-dimethyl-7-benzofuranyl (4-bromo-2-methylphenylthio)(methyl)carbamate]",23%,28%

# Tested on: not listed separately
# Experiment: in vivo
# Conditions: mouse, po
# Experimental: Acute oral toxicity of the compounds of the present invention to mice was determined after the manner of Hollingworth, Fukuto, and Metcalf in J. Agr. […] A dose of 0.25 ml of each solution was administered to each of four female white Swiss mice using the "bolus" - tipped syringe. […] Final mortality determinations were made forty-eight hours after treatment.
row,Compound,LD50 at 48 h
1,"Cc1cc(Br)ccc1SN(C)C(=O)Oc1cccc2c1OC(C)(C)C2 [XI, 2,3-Dihydro-2,2-dimethyl-7-benzofuranyl (4-bromo-2-methylphenylthio)(methyl)carbamate]",100 to 150 mg/kg

# Tested on: southern army worm
# Experiment: Residual contact activity, southern army worm
# Conditions: 1250 ppm; 7 days; 2880 min
row,Compound,"% Kill, AW (residual contact)"
1,"Cc1cc(Br)ccc1SN(C)C(=O)Oc1cccc2c1OC(C)(C)C2 [XI, 2,3-Dihydro-2,2-dimethyl-7-benzofuranyl (4-bromo-2-methylphenylthio)(methyl)carbamate]",100%

# Tested on: Culex fatigans
# Experiment: whole plant or invertebrate
# Conditions: Culex quinquefasciatus, 24 h, read-out: Mosquitoes LC50
# Experimental: The appropriate amount of stock solution was added with stirring to 100 ml of tap water and 20-25 fourth instar larvae of Culex fatigans were placed in the solution. After twenty-four hours, the counts were taken. Larvae not able to rise to the surface on touch were counted as dead. Each concentration was run in duplicate and each material was run on two or three different days. The average percent mortality was plotted against the logarithm of the concentration (in ppm) and the LC50 value determined by inspection.
row,Compound,LC50
1,"Cc1cc(Br)ccc1SN(C)C(=O)Oc1cccc2c1OC(C)(C)C2 [XI, 2,3-Dihydro-2,2-dimethyl-7-benzofuranyl (4-bromo-2-methylphenylthio)(methyl)carbamate]",2.5 ng/mL

# Tested on: two-spotted spider mite
# Experiment: Residual contact activity, two-spotted spider mite
# Conditions: Tetranychus urticae, 48 h, read-out: % Kill, SM (residual contact)
row,Compound,mortality at 1250 ppm
1,"Cc1cc(Br)ccc1SN(C)C(=O)Oc1cccc2c1OC(C)(C)C2 [XI, 2,3-Dihydro-2,2-dimethyl-7-benzofuranyl (4-bromo-2-methylphenylthio)(methyl)carbamate]",3%

# Tested on: houseflies
# Experiment: whole plant or invertebrate
# Conditions: Musca domestica, topical, 24 h, read-out: Houseflies LD50
# Experimental: Toxicity of the compounds of the present invention to houseflies was tested using the technique described by March and Metcalf in Bull. Calif. State Dept. Agr. […] Adult female houseflies were treated with one drop of acetone solution, applied to the prothorax, using a syringe calibrated to deliver 1.00 ± 0.05 mm^3 drops. Twenty flies were treated at each dosage, each test compound was applied at 8 to 10 dosage levels. Each test was replicated three times. […] A one-inch square of cotton saturated with 40% sugar solution was provided for food in each carton. The cartons of flies were held in a constant temperature chamber at 60° F and 60% relative humidity for 24 hours before mortality counts were made. Flies totally unable to make crawling or walking movements were counted as dead. LD50 values were calculated in the conventional manner.
row,Compound,LD50
1,"Cc1cc(Br)ccc1SN(C)C(=O)Oc1cccc2c1OC(C)(C)C2 [XI, 2,3-Dihydro-2,2-dimethyl-7-benzofuranyl (4-bromo-2-methylphenylthio)(methyl)carbamate]",11.2 mg/kg

# Tested on: Mexican bean beetle
# Experiment: whole plant or invertebrate
# Conditions: Epilachna varivestis, 48 h, read-out: % Kill, BB (systemic)
Compound,mortality at 39 ppm,mortality at 156 ppm
"Cc1cc(Br)ccc1SN(C)C(=O)Oc1cccc2c1OC(C)(C)C2 [XI, 2,3-Dihydro-2,2-dimethyl-7-benzofuranyl (4-bromo-2-methylphenylthio)(methyl)carbamate]",95%,100%

# Tested on: plum curculio
# Experiment: Initial contact activity, plum curculio
# Conditions: Conotrachelus nenuphar, 48 h, read-out: % Kill, PC (initial contact)
row,Compound,mortality at 1250 ppm
1,"Cc1cc(Br)ccc1SN(C)C(=O)Oc1cccc2c1OC(C)(C)C2 [XI, 2,3-Dihydro-2,2-dimethyl-7-benzofuranyl (4-bromo-2-methylphenylthio)(methyl)carbamate]",100%

# Tested on: pea aphid
# Experiment: Initial contact activity, pea aphid
# Conditions: Acyrthosiphon pisum, 48 h, read-out: % Kill, PA (initial contact)
row,Compound,mortality at 1250 ppm
1,"Cc1cc(Br)ccc1SN(C)C(=O)Oc1cccc2c1OC(C)(C)C2 [XI, 2,3-Dihydro-2,2-dimethyl-7-benzofuranyl (4-bromo-2-methylphenylthio)(methyl)carbamate]",35%

# Tested on: granary weevil
# Experiment: Initial contact activity, granary weevil
# Conditions: Sitophilus granarius, 48 h, read-out: % Kill, GW (initial contact)
row,Compound,mortality at 1250 ppm
1,"Cc1cc(Br)ccc1SN(C)C(=O)Oc1cccc2c1OC(C)(C)C2 [XI, 2,3-Dihydro-2,2-dimethyl-7-benzofuranyl (4-bromo-2-methylphenylthio)(methyl)carbamate]",100%

# Tested on: southern army worm
# Experiment: not given
# Conditions: 39 ppm soil watering; group printed before the slash (separate test vs carbofuran); 2880 min
row,Compound,"% Kill, AW (systemic)"
1,"Cc1cc(Br)ccc1SN(C)C(=O)Oc1cccc2c1OC(C)(C)C2 [XI, 2,3-Dihydro-2,2-dimethyl-7-benzofuranyl (4-bromo-2-methylphenylthio)(methyl)carbamate]",75%

# Same assay, conditions: 156 ppm soil watering; 2880 min
row,Compound,"% Kill, AW (systemic)"
1,"Cc1cc(Br)ccc1SN(C)C(=O)Oc1cccc2c1OC(C)(C)C2 [XI, 2,3-Dihydro-2,2-dimethyl-7-benzofuranyl (4-bromo-2-methylphenylthio)(methyl)carbamate]",100%
